Counter-ions that a name gives are not always drawn.
Molecular target: T1, butyrylcholinesterase (BChE) (Equus caballus, UniProt P81908)
T1 construct: purchased Merck Life Science S.r.l; (Milan, Italy); host or cells: equine serum
Assay: In vitro BChE inhibition test (spectrophotometric, Ellman)
Assay type: biochemical, equine
Conditions: 1.0 µg/mL in reaction mixture, read-out: % Enzyme Inhibition (n = 3)
Procedure: The assays were optimized for essential oil matrices, particularly by adjusting solvent conditions (DMSO content), substrate/enzyme ratios, and assay timing to ensure measurements within the linear kinetic range. The percentage inhibition of AChE, BChE, α-glucosidase, lipase and tyrosinase was measured according to the equation below: % Inhibition=∆AControl−∆A(Sample)/∆AControl×100 where: ∆A (Control) = A Control − A Control Blank∆A(Sample) = A Sample − A Sample Blank
The buffers used in the experiment were: buffer A (50 mM Tris-HCl, pH 8), buffer B (50 mM Tris-HCl, pH 8, supplemented with 0.1% bovine albumin and 0.1% TWEEN20) and buffer C (50 mM Tris-HCl, pH 8, containing 0.1 M NaCl and 0.02 M MgCl2•6H2O). The solutions for both enzymes (0.22 U/mL) were prepared using buffer B. Acetylthiocholine iodide (ATCI) at 1.5 mM was dissolved in Millipore water, while butyrylthiocholine iodide (BTCI) was dissolved in buffer A. Ellman’s reagent solution (3 mM) was prepared in buffer C.
The final concentration of DMSO in the reaction mixture was 0.3%. The mixture was incubated at 30 °C for 6 min, after which absorbance was measured at 405 nm.

T1 sequence (P81908 whole entry): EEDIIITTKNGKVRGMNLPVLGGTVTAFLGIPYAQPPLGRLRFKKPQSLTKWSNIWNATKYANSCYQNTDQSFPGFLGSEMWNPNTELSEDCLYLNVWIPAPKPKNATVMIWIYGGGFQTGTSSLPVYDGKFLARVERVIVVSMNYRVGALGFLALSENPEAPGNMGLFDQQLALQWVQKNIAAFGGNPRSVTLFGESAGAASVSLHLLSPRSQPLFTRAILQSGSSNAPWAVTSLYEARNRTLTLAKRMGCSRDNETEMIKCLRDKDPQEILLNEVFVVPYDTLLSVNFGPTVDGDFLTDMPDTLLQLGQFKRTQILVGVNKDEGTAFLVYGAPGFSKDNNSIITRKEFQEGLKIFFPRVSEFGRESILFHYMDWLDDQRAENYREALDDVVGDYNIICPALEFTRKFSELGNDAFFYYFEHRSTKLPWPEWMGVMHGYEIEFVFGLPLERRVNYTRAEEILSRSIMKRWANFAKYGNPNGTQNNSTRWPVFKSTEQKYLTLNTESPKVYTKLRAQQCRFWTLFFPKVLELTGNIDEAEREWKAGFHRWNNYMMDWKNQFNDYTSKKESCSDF

In the case of `COc1ccc2c3c1O[C@H]1C[C@@H](O)C=C[C@@]31CCN(C)C2` [Galanthamine, galanthamine hydrobromide], the inhibition at 1 µg/mL was 24.7%.
